IC50 data for one compound are collected here from PMC8465764 (Organic letters, 2021).

In one test the target is T1, S. aureus FabH (Staphylococcus aureus, UniProt Q8NXE2).
T1 sequence (Q8NXE2 1-313): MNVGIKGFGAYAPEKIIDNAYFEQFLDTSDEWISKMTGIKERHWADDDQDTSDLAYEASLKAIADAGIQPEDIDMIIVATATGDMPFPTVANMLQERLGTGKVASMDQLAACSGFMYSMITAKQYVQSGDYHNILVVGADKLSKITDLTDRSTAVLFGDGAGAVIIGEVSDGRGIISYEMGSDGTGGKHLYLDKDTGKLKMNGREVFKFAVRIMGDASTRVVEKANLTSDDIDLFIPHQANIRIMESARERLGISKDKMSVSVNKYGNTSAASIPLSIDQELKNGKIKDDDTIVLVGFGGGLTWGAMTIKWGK
The test can be described thus: FabH radiochemical assay, […]-ketoacyl-ACP formed. Type of test: biochemical.

Another test has as its system B. subtilis FabH. Described as above. Type of test: biochemical, Bacillus subtilis.

The IC50 is the concentration needed to halve the response being measured. Read a low IC50 as greater potency. With `C=C(C(=O)O)[C@@H]1O[C@H]1CCCCC=C(C)CCC[C@H](O)CC` [compound 2, conocandin B], the IC50 against S. aureus FabH was found to be 18.8 ± 2.5 µM; in the test with B. subtilis FabH, 53.5 ± 10.4 µM.
